# Measured values taken from patent publication US8580809B2, “Filamin A-binding anti-inflammatory analgesic” (Pain Therapeutics, Inc., priority 2009, dated 2013).
# Target: T1, mu opiate receptor (MOR) (Rattus norvegicus, UniProt P33535)
# T1 construct: from tissue; host or cells: rat striatal membrane preparation
# Experiment: MOR agonist activity using [35S]GTPγS binding assay in striatal membranes
# Type: biochemical
# Settings: 0.1 μM compound, striatal membranes
# Experimental: To assess the mu opiate receptor (MOR) agonist activity of positive compounds from the FLNA screening, compounds were tested in a [^35S]GTPγS binding assay using striatal membranes.
# Striatal tissue was homogenized in 10 volumes of ice cold 25 mM HEPES buffer, pH 7.4, which contained 1 mM EGTA, 100 mM sucrose, 50 μg/ml leupeptin, 0.04 mM PMSF, 2 μg/ml soybean trypsin inhibitor and 0.2% 2-mercaptoethanol. The homogenates were centrifuged at 800×g for 5 minutes and the supernatants were centrifuged at 49,000×g for 20 minutes.
# The resultant striatal membrane preparation (200 μg) was admixed and maintained (incubated) at 30° C. for 5 minutes in reaction buffer as above that additionally contained 1 mM MgCl2 and 0.5 nM [^35S]GTPγS (0.1 μCi/assay, PerkinElmer Life and Analytical Sciences) in a total volume of 250 μl and continued for 5 minutes in the absence or presence of 0.1-10 μM of an assayed compound of interest. The reaction was terminated by dilution with 750 μl of ice-cold reaction buffer that contained 20 mM MgCl2 and 1 mM EGTA and immediate centrifugation at 16,000×g for 5 minutes.
# The resulting pellet was solubilized by sonicating for 10 seconds in 0.5 ml of immunoprecipitation buffer containing 0.5% digitonin, 0.2% sodium cholate and 0.5% NP-40. Normal rabbit serum (1 μl) was added to 1 ml of lysate and incubated at 25° C. for 30 minutes. Nonspecific immune complexes were removed by incubation with 25 μl of protein A/G-conjugated agarose beads at 25° C. for 30 minutes followed by centrifugation at 5,000×g at 4° C. for 5 minutes. The supernatant was divided and separately incubated at 25° C. for 30 minutes with antibodies raised against Gαo proteins (1:1,000 dilutions).
# The immunocomplexes so formed were collected by incubation at 25° C. for 30 minutes with 40 μl of agarose-conjugated protein A/G beads and centrifugation at 5,000×g at 4° C. for 5 minutes. The pellet was washed and suspended in buffer containing 50 mM Tris-HCl, pH 8.0, and 1% NP-40. The radioactivity in the suspension was determined by liquid scintillation spectrometry. […] DAMGO (H-Tyr-D-Ala-Gly-N-MePhe-Gly-OH; 1 or 10 μM) was used as a positive control.
# T1 sequence (P33535 whole entry): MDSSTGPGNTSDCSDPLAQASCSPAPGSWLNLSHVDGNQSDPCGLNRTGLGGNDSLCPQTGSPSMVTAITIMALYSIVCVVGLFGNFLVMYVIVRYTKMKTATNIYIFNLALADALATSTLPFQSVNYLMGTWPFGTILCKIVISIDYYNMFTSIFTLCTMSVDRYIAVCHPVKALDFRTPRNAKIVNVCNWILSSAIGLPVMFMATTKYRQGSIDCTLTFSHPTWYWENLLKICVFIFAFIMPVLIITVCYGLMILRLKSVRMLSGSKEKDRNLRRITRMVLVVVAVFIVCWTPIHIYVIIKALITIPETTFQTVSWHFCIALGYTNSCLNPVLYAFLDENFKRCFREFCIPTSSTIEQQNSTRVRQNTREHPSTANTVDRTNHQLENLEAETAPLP
row,SMILES,"MOR agonist activity, [35S]GTPγS binding to Gαo, FLNA-binding compound as agonist 0.1 μM"
1,COc1ccc(S(=O)(=O)N2CCC3(CC2)OCCN3S(=O)(=O)c2ccc(OC)c(OC)c2)cc1OC [Compound C0049],106.6%
2,CC(O)c1ccc(S(=O)(=O)N2CCC3(CC2)OCCN3S(=O)(=O)c2ccc(C(C)O)cc2)cc1 (stereo not drawn) [Compound C0051],94.4%
3,CC(=O)c1ccc(C(=O)N2CCOC23CCN(S(=O)(=O)c2ccc(C(C)=O)cc2)CC3)cc1 [Compound C0053],104.0%
4,CC(=O)c1ccc(C(=O)N2CCC3(CC2)OCCN3C(=O)c2ccc(C(C)=O)cc2)cc1 [Compound C0054],68.2%
5,COc1cc(S(=O)(=O)N2CCC3(CC2)OCCN3S(=O)(=O)c2cc(OC)c(OC)c(OC)c2)cc(OC)c1OC [Compound C0062],127.8%
6,CC(=O)c1ccc(S(=O)(=O)N2CCC3(CC2)NC(=O)CN3S(=O)(=O)c2ccc(C(C)=O)cc2)cc1 [Compound C0064],213.8%
7,CC(=O)c1ccc(S(=O)(=O)N2CCC3(CC2)OC(CN(C)C)CN3S(=O)(=O)c2ccc(C(C)=O)cc2)cc1 (stereo not drawn) [Compound C0065],198.3%
8,O=S(=O)(c1ccc(Cl)cc1)N1CCC2(CC1)OCCN2S(=O)(=O)c1ccc(Cl)cc1 [Compound C0067],142.7%
9,O=S(=O)(c1ccc(Br)cc1C(F)(F)F)N1CCC2(CC1)OCCN2S(=O)(=O)c1ccc(Br)cc1C(F)(F)F [Compound C0068],107.2%
10,O=S(=O)(c1ccc(Br)cc1Br)N1CCC2(CC1)OCCN2S(=O)(=O)c1ccc(Br)cc1Br [Compound C0070],165.6%
11,O=S(=O)(c1ccc(C(F)(F)F)cc1Br)N1CCC2(CC1)OCCN2S(=O)(=O)c1ccc(C(F)(F)F)cc1Br [Compound C0071],276.3%
12,O=S(=O)(c1ccc(F)c(F)c1)N1CCC2(CC1)OCCN2S(=O)(=O)c1ccc(F)c(F)c1 [Compound C0072],172.7%
13,O=S(=O)(c1ccc(Br)c(C(F)(F)F)c1)N1CCC2(CC1)OCCN2S(=O)(=O)c1ccc(Br)c(C(F)(F)F)c1 [Compound C0077],192.7%

# Same assay, conditions: 1 μM compound + 1 μM β-funaltrexamine
row,SMILES,"MOR agonist activity, [35S]GTPγS binding to Gαo, 1 μM + BFNA"
1,COc1ccc(S(=O)(=O)N2CCC3(CC2)OCCN3S(=O)(=O)c2ccc(OC)c(OC)c2)cc1OC [Compound C0049],81.0%
2,CC(O)c1ccc(S(=O)(=O)N2CCC3(CC2)OCCN3S(=O)(=O)c2ccc(C(C)O)cc2)cc1 (stereo not drawn) [Compound C0051],55.9%
3,CC(=O)c1ccc(C(=O)N2CCOC23CCN(S(=O)(=O)c2ccc(C(C)=O)cc2)CC3)cc1 [Compound C0053],93.1%
4,CC(=O)c1ccc(C(=O)N2CCC3(CC2)OCCN3C(=O)c2ccc(C(C)=O)cc2)cc1 [Compound C0054],43.5%
5,COc1cc(S(=O)(=O)N2CCC3(CC2)OCCN3S(=O)(=O)c2cc(OC)c(OC)c(OC)c2)cc(OC)c1OC [Compound C0062],59.8%
6,CC(=O)c1ccc(S(=O)(=O)N2CCC3(CC2)NC(=O)CN3S(=O)(=O)c2ccc(C(C)=O)cc2)cc1 [Compound C0064],38.1%
7,CC(=O)c1ccc(S(=O)(=O)N2CCC3(CC2)OC(CN(C)C)CN3S(=O)(=O)c2ccc(C(C)=O)cc2)cc1 (stereo not drawn) [Compound C0065],47.7%
8,O=S(=O)(c1ccc(Cl)cc1)N1CCC2(CC1)OCCN2S(=O)(=O)c1ccc(Cl)cc1 [Compound C0067],33.5%
9,O=S(=O)(c1ccc(Br)cc1C(F)(F)F)N1CCC2(CC1)OCCN2S(=O)(=O)c1ccc(Br)cc1C(F)(F)F [Compound C0068],165.9%
10,O=S(=O)(c1ccc(Br)cc1Br)N1CCC2(CC1)OCCN2S(=O)(=O)c1ccc(Br)cc1Br [Compound C0070],114.2%
11,O=S(=O)(c1ccc(C(F)(F)F)cc1Br)N1CCC2(CC1)OCCN2S(=O)(=O)c1ccc(C(F)(F)F)cc1Br [Compound C0071],177.1%
12,O=S(=O)(c1ccc(F)c(F)c1)N1CCC2(CC1)OCCN2S(=O)(=O)c1ccc(F)c(F)c1 [Compound C0072],67.1%
13,O=S(=O)(c1ccc(Br)c(C(F)(F)F)c1)N1CCC2(CC1)OCCN2S(=O)(=O)c1ccc(Br)c(C(F)(F)F)c1 [Compound C0077],136.7%

# Same assay, conditions: 1 μM compound, striatal membranes
row,SMILES,"MOR agonist activity, [35S]GTPγS binding to Gαo, FLNA-binding compound as agonist 1 μM"
1,COc1ccc(S(=O)(=O)N2CCC3(CC2)OCCN3S(=O)(=O)c2ccc(OC)c(OC)c2)cc1OC [Compound C0049],210.0%
2,CC(O)c1ccc(S(=O)(=O)N2CCC3(CC2)OCCN3S(=O)(=O)c2ccc(C(C)O)cc2)cc1 (stereo not drawn) [Compound C0051],170.4%
3,CC(=O)c1ccc(C(=O)N2CCOC23CCN(S(=O)(=O)c2ccc(C(C)=O)cc2)CC3)cc1 [Compound C0053],157.2%
4,CC(=O)c1ccc(C(=O)N2CCC3(CC2)OCCN3C(=O)c2ccc(C(C)=O)cc2)cc1 [Compound C0054],127.0%
5,COc1cc(S(=O)(=O)N2CCC3(CC2)OCCN3S(=O)(=O)c2cc(OC)c(OC)c(OC)c2)cc(OC)c1OC [Compound C0062],310.5%
6,CC(=O)c1ccc(S(=O)(=O)N2CCC3(CC2)NC(=O)CN3S(=O)(=O)c2ccc(C(C)=O)cc2)cc1 [Compound C0064],349.6%
7,CC(=O)c1ccc(S(=O)(=O)N2CCC3(CC2)OC(CN(C)C)CN3S(=O)(=O)c2ccc(C(C)=O)cc2)cc1 (stereo not drawn) [Compound C0065],279.5%
8,O=S(=O)(c1ccc(Cl)cc1)N1CCC2(CC1)OCCN2S(=O)(=O)c1ccc(Cl)cc1 [Compound C0067],179.0%
9,O=S(=O)(c1ccc(Br)cc1C(F)(F)F)N1CCC2(CC1)OCCN2S(=O)(=O)c1ccc(Br)cc1C(F)(F)F [Compound C0068],263.1%
10,O=S(=O)(c1ccc(Br)cc1Br)N1CCC2(CC1)OCCN2S(=O)(=O)c1ccc(Br)cc1Br [Compound C0070],210.8%
11,O=S(=O)(c1ccc(C(F)(F)F)cc1Br)N1CCC2(CC1)OCCN2S(=O)(=O)c1ccc(C(F)(F)F)cc1Br [Compound C0071],355.3%
12,O=S(=O)(c1ccc(F)c(F)c1)N1CCC2(CC1)OCCN2S(=O)(=O)c1ccc(F)c(F)c1 [Compound C0072],259.1%
13,O=S(=O)(c1ccc(Br)c(C(F)(F)F)c1)N1CCC2(CC1)OCCN2S(=O)(=O)c1ccc(Br)c(C(F)(F)F)c1 [Compound C0077],265.4%
